Source: US20140213502A1, “CHEMICAL MODIFICATION OF APOLIPOPROTEIN MIMETIC PEPTIDES FOR THE PRODUCTION OF THERAPEUTIC AGENTS” (United States Department of Health and Human Services, priority 2011, published 2014)
Like-named read-outs stand apart in the source and are kept apart here. Bridge positions count the residues as written; N and C are the ends. Square brackets hold non-standard residues; d marks the D form. Ends that are not written are not given here. Peptide text beside a SMILES is read from it. * marks the point of attachment. Myristoyl = CCCCCCCCCCCCCC(=O)*; R8 = C=CCCCCCC[C@@](C)(N)C(=O)O; S5 = C=CCCC[C@](C)(N)C(=O)O

How the values were obtained:
[1] = Helicity by circular dichroism (CD) spectroscopy; format: physicochemical; conditions: for helical (helicity by CD spectroscopy): 24° C., aqueous buffer (sodium phosphate pH 7.4), peptide 0.1 mg/mL; for Helicity at 90° C.: heat denaturation, CD spectroscopy
Description: FIG. 1 depicts the primary sequence and information regarding the biophysical characterization of illustrative peptides discussed herein. […] X1=(R)-a-(7′-octanyl)Ala; X2=(S)-a-(4′ pentenyl)Ala. […] (dotted line) A10, (solid line) S1A10, (dashed line) S2A10.
FIG. 5 depicts helicity of peptides as measured by CD-spectroscopy at 24° C.: (dotted line) 5A, (dashed line) acyl-5A.
The helical nature of the peptides was determined by circular dichroism spectroscopy. Peptides (0.1 mg/mL) in sodium phosphate buffer (pH 7.4) were loaded into a quartz cuvette (d=0.2 cm path length) and CD spectra from 185 to 240 nm were recorded on a Jasco J715 spectropolarimeter at 24° C. Data were normalized by calculating the mean residue ellipticity (θ). Peptide thermostability was monitored at 220 nm by increasing temperature from 10° to 90° C.

pepsin = experiment: Susceptibility to proteolysis by pepsin, loss of intact peptide by MALDI-TOF MS; format: in vitro ADME; conditions: for remaining at 24 h, 500 μg/ml: pepsin (isolated protease), pepsin 0.5 μg/ml, pH 2, 37° C., read-out: peptide remaining after digestion
Description: (§1) FIG. 2 depicts information relating to peptide susceptibility to proteolysis. Peptides […] and […] at a final concentration of 500 μg/ml were incubated for the indicated times with either pepsin (0.5 μg/ml) in 10% acetic acid (pH 2.0) buffer (Panel A) or with chymotrypsin (0.5 μg/ml) in 10 mM NH4HCO3 (pH 7.4) buffer (Panel B), and loss of intact peptide was monitored by MALDI-TOF MS. Results are expressed as normalized area under the curve measurements relative to three internal standards. […] Several potential pepsin and/or chymotrypsin cleavage sites are found within and outside the linker region of the peptides […] and […]. […] and […] (5 mg/ml) were diluted 10× with either 10% acetic acid (pH 2), containing pepsin (0.5 μg/ml final) or in 10 mM NH4HCO3 (pH 7), containing chymotrypsin (0.5 μg/ml final). After incubation at 37° C., aliquots at various time points were removed and dried on a MALDI Anchor Chip target at 45° C. MALDI standards (Bombesin, ACTH 1-17, ACTH 18-39, Somastatin 28, CHCA in 50% ACN, 0.1% TFA) and matrix were added sequentially and allowed to dry between additions. Samples were analyzed on a Bruker AutoFlex III (Bruker Daltonics) in positive ion reflectron mode. Relative protein concentrations were determined from areas under the curve, using the MALDI standards as calibrators.

chymotrypsin = experiment: Susceptibility to proteolysis by chymotrypsin, loss of intact peptide by MALDI-TOF MS; format: in vitro ADME; conditions: for remaining at 24 h, 500 μg/ml: chymotrypsin (isolated protease), read-out: peptide remaining after digestion
Description: as §1

aortic atherosclerosis = experiment: Atherosclerosis progression in a mouse model, en face analysis of aorta; format: in vivo; conditions: apoE^hypx SR-BI Ko mice, 200 ug/mL in drinking water, high fat (21%) diet 2 weeks
Description: FIG. 8 depicts the results of testing the peptide […] on atherosclerosis progression in a mouse model of atherosclerosis. To test the ability of the stapled peptide variant of the last helix of apoA-T containing the long linker, […], it was added to the drinking water (200 ug/mL) of apoE^hypx SR-BI Ko mice. The mice were fed a high fat (21%) diet for 2-weeks and examined for aortic atherosclerosis by en face analysis.

[2] = Effect of acyl-5A on serum lipid profile of mice; format: in vivo; conditions: CS7BL/6 mice, 30 mg/kg intravenously in saline, relative to baseline
Description: FIG. 7 depicts the results of testing acyl-5A on scrum lipid values in mice. Acyl-5A was injected intravenously in CS7BL/6 mice (n=4) at a dose of 30 mg/kg in saline, and serum was measured for total cholesterol (Panel A), cholesteryl esters (Panel B), and free cholesterol (Panel C) at the indicated, time points. Mean of results are expressed as % of baseline.
In FIG. 7, the results of testing the effect of acyl-5A on the serum lipid profile of mice are shown.

[3] = Oligomer formation in aqueous solution; format: physicochemical
[4] = format: physicochemical
Description: FIG. 3 depicts Dimyristoyl phosphatidyl choline (DMPC) vesicle solubilization by the indicated peptides. Peptides A10, S1A10 and S2A10 at a final concentration of 33 μg/mL or phosphate buffer saline (PBS) was incubated with DMPC vehicles (200 μg/mL) and monitored for turbidity at 1 min. intervals.
A phospholipid vesicle solubilization assay was undertaken to assess the ability of the peptides to act like detergents. Dimyristoyl phosphatidyl choline (DMPC) vesicles were prepared by resuspension of dried DMPC with PBS and vortexing for 5 min. Changes in light scattering upon peptide addition were monitored at 24° C. every minute for 1 h at 660 nm, with shaking in a Perkin Elmer plate reader.

ABCA1 transporter = biological target: T1, ABCA1 transporter (Homo sapiens, UniProt O95477); experiment: Cholesterol efflux, BHK cells stably transfected with human ABCA1; format: cell-based; conditions: 18 h
T1 construct: expressed in transfected cells; host or cells: BHK cells
T1 sequence (O95477 whole entry): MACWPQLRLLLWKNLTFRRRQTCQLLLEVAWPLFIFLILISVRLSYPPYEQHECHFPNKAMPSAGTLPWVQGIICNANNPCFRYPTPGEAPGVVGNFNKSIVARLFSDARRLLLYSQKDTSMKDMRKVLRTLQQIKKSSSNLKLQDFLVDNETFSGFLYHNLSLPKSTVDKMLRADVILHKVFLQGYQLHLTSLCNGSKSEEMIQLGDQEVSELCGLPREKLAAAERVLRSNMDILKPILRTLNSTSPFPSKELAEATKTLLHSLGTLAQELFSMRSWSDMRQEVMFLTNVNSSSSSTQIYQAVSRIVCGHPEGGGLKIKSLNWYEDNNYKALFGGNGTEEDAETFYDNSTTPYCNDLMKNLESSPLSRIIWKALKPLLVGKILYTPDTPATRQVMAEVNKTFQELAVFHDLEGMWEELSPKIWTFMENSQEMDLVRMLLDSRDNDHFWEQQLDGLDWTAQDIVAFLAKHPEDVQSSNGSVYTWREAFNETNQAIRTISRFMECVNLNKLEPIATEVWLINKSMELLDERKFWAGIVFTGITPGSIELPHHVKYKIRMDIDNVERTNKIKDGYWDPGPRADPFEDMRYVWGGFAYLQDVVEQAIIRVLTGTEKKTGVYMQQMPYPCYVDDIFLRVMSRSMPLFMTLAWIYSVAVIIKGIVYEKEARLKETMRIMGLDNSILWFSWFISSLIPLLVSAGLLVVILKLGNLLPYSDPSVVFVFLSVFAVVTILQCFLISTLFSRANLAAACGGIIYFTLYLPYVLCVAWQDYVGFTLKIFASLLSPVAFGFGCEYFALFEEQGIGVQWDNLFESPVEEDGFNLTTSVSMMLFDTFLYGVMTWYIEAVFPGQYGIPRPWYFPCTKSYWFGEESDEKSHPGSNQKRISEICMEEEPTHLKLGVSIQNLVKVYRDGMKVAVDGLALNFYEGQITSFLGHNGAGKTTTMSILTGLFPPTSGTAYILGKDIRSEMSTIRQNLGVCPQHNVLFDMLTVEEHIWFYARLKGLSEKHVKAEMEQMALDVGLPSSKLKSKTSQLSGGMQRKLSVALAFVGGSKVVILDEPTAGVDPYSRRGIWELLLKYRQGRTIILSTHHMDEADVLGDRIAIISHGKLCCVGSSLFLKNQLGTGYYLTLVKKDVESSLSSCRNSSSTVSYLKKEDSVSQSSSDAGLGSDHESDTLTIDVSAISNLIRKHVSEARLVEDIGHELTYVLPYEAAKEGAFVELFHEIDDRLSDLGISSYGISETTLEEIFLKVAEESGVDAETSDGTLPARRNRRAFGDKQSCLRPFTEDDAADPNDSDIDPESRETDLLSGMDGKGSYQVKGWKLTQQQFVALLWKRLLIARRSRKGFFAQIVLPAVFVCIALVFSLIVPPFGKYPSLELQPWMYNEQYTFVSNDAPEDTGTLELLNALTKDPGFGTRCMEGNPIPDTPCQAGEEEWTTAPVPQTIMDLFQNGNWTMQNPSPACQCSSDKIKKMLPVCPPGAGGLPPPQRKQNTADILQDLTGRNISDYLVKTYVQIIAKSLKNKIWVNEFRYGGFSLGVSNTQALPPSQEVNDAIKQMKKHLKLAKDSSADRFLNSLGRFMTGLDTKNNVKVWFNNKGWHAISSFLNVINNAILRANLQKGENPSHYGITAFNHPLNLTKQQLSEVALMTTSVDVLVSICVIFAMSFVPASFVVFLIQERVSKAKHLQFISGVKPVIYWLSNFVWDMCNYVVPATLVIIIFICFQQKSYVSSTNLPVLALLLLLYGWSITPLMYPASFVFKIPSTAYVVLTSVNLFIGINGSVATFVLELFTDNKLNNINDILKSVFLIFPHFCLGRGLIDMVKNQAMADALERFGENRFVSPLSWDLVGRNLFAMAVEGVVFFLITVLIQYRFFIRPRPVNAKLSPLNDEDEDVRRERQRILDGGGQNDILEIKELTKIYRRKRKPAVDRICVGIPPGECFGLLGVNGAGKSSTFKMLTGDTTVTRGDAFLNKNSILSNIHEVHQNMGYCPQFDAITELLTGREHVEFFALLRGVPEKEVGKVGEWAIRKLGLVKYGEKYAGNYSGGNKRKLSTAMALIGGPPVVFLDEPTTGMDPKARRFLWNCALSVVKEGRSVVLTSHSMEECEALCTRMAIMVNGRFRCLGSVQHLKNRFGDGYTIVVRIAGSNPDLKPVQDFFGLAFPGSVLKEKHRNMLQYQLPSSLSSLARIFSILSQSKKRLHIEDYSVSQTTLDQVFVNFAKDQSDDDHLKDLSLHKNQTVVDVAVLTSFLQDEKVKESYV
Description: (§2) FIG. 4 depicts the results of testing the effect of the peptides on cholesterol efflux. Peptides A10, S1A10, S2A10, 5A at the indicated concentration were incubated with (Panel A) BHK control cells, (Panel B) ABC-A1 transfected BHK cells, (Panel C) ABC-G1 transfected BHK cells, and (Panel D) SR-B1 transfected BHK cells and monitored for cholesterol efflux. Percent of cholesterol efflux over 18 h is expressed as mean±SD of triplicate determinations.
(§3) The ability of the three peptides and the bi-helical 5A peptide to promote cholesterol efflux was tested on BHK cells stably transfected with human ABCA1, ABCG1 or the human SRBI receptor (FIGS. 5 and 6). Cholesterol efflux studies were performed, as described previously. Control BHK cells and BHK cells stably transfected with either human ABCA1, ABCG1 or SR-BI were radiolabeled with [^3H] cholesterol for 24 h, washed and then treated with the indicated concentration of peptides for 18 h. Percent efflux was calculated by subtracting the radioactive counts in blank medium (alpha-minimal essential media plus 10 μg/ml bovine serum albumin) from the radioactive counts in the presence of a peptide and then dividing the result by the sum of the radioactive counts in the medium plus the cell fraction.

SR-BI receptor = biological target: T2, SR-BI receptor (Homo sapiens, UniProt Q8WTV0); experiment: Cholesterol efflux, SR-BI transfected BHK cells; format: cell-based; conditions: 18 h, no phospholipid reconstitution
T2 construct: expressed in transfected cells; host or cells: BHK cells
T2 sequence (Q8WTV0 1-552): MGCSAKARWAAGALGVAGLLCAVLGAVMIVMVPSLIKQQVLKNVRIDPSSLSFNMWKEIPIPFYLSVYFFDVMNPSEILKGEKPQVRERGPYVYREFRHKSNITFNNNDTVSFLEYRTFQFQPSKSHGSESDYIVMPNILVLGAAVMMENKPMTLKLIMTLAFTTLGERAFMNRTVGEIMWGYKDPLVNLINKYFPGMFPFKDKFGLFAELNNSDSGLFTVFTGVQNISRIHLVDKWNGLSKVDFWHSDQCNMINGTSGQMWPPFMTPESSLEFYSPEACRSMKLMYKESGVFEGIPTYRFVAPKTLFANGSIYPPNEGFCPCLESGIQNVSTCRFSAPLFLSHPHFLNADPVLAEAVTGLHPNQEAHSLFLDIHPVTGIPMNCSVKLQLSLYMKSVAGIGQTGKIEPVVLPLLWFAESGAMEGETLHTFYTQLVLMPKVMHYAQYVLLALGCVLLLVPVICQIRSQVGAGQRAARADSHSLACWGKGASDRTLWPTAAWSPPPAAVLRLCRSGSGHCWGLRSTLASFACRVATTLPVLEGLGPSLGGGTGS
Description: as §2, §3

ABCG1 transporter = biological target: T3, ABCG1 transporter (Homo sapiens, UniProt P45844); experiment: Cholesterol efflux, ABCG1 transfected BHK cells; format: cell-based; conditions: 18 h, no phospholipid reconstitution
T3 construct: expressed in transfected cells; host or cells: BHK cells
Description: as §2, §3

[5] = cited from earlier work
[6] = chymotrypsin 0.5 μg/ml, 10 mM NH4HCO3 (pH 7), 37° C.

CC(=O)N[C@H](C(=O)N[C@@H](CC(C)C)C(=O)N[C@@H](CCC(=O)O)C(=O)N[C@@H](CO)C(=O)N[C@@H](Cc1ccccc1)C(=O)N[C@@H](CCCCN)C(=O)N[C@H](C(=O)N[C@@H](CO)C(=O)N[C@]1(C)CCCCCCC=CCCCCCC[C@](C)(C(=O)N[C@@H](CCC(=O)O)C(=O)N[C@@H](CCC(=O)O)C(=O)N[C@@H](Cc2ccc(O)cc2)C(=O)N[C@H](C(=O)N[C@@H](CCCCN)C(=O)N[C@@H](CCCCN)C(=O)N[C@@H](CC(C)C)C(=O)N[C@@H](CC(N)=O)C(=O)N[C@H](C(=O)N[C@@H](CCC(N)=O)C(N)=O)[C@@H](C)O)[C@@H](C)O)NC(=O)[C@H](C)NC(=O)[C@H](CO)NC(=O)[C@H](CC(C)C)NC1=O)C(C)C)C(C)C [S1A10] (Ac-VLESFKVS[R8]LSA[R8]EEYTKKLNTQ-NH2; staple 9-13; N-terminus and C-terminus assumed)
helical (helicity by CD spectroscopy) [1]: 62% | Helicity at 90° C. [1]: 25% | remaining at 24 h, 500 μg/ml (pepsin): 0.4% | remaining at 24 h, 500 μg/ml (chymotrypsin; [6]): 0.6%

CC(=O)N[C@H](C(=O)N[C@@H](CC(C)C)C(=O)N[C@@H](CCC(=O)O)C(=O)N[C@@H](CO)C(=O)N[C@@H](Cc1ccccc1)C(=O)N[C@@H](CCCCN)C(=O)N[C@H](C(=O)N[C@@H](CO)C(=O)N[C@@]1(C)CCCC=CCCCCCC[C@](C)(C(=O)N[C@H](C(=O)N[C@@H](CCCCN)C(=O)N[C@@H](CCCCN)C(=O)N[C@@H](CC(C)C)C(=O)N[C@@H](CC(N)=O)C(=O)N[C@H](C(=O)N[C@@H](CCC(N)=O)C(N)=O)[C@@H](C)O)[C@@H](C)O)NC(=O)[C@H](CCC(=O)O)NC(=O)[C@H](CCC(=O)O)NC(=O)[C@H](CC(C)C)NC(=O)[C@H](C)NC(=O)[C@H](CO)NC(=O)[C@H](CC(C)C)NC1=O)C(C)C)C(C)C [S2A10] (Ac-VLESFKVS[S5]LSALEE[R8]TKKLNTQ-NH2; staple 9-16; N-terminus and C-terminus assumed)
helical (helicity by CD spectroscopy) [1]: 97% | Helicity at 90° C. [1]: 48% | decrease in % area coverage by atherosclerotic plaques (aortic atherosclerosis): > 2 fold | remaining at 24 h, 500 μg/ml (pepsin): 12.2% | resistance to proteolysis by chymotrypsin (in words) (chymotrypsin; [6]): less sensitive to chymotrypsin than S1A10 | remaining at 24 h, 500 μg/ml (chymotrypsin; [6]): 3.8%

myrstic acid GGGDWLKAFYDKVAEKLKEAFPDWAKAAYDKAAEKAKEAA (Myristoyl-GGGDWLKAFYDKVAEKLKEAFPDWAKAAYDKAAEKAKEAA) [acyl-5A]
increase in serum total cholesterol [2]: approximately 20% | increase in serum free cholesterol ([2]; found primarily on HDL): > 2 fold | helical (helicity by CD spectroscopy) [1]: 36.7% | peptides per complex (oligomer) [3]: approximately 10 peptides per complex

Ac-VLESFKVSFLSALEEYTKKLNTQ-NH2 [A10, reference compound]
helical (helicity by CD spectroscopy) [1]: 17% | Helicity at 90° C. [1]: 11% | remaining at 0.5 h, 500 μg/ml (pepsin; isolated enzyme pepsin, pH 2): < 5% | DMPC vesicle solubilization (turbidity, in words) [4]: some initial solubilization of the DMPC vesicles, but at later time points, the turbidity of the solution increased | cholesterol efflux by the ABCA1 transporter (in words) (ABCA1 transporter): ineffective | remaining at 0.5 h, 500 μg/ml (chymotrypsin; isolated enzyme chymotrypsin, pH 7): < 5% | cholesterol efflux (in words) (SR-BI receptor): ineffective | cholesterol efflux (in words) (ABCG1 transporter): ineffective

apoA-I: the main protein in High Density Lipoprotein (HDL)
helical ([5]; associated with lipids): over 80% | helical ([5]; lipid-free state): about 20%
